How the values were obtained:
Experiment in all cases: biochemical
Settings in all cases: read-out: % inhibition mean (Z'Lyte)
[1] = biological target: PAK3 (Homo sapiens, UniProt O75914)
[2] = biological target: PRKCB1 (PKC beta I) (Homo sapiens, UniProt P05771)
[3] = biological target: MYLK2 (skMLCK) (Homo sapiens, UniProt Q9H1R3)
[4] = biological target: EGFR (ErbB1) C797S (Homo sapiens, UniProt P00533, C797S)
[5] = biological target: CSNK2A1 (CK2 alpha 1) (Homo sapiens, UniProt P68400)
[6] = biological target: CSNK1G2 (CK1 gamma 2) (Homo sapiens, UniProt P78368)
[7] = biological target: EGFR (ErbB1) G719C (Homo sapiens, UniProt P00533, G719C)
[8] = biological target: EPHA4 (Homo sapiens, UniProt P54764)
[9] = biological target: LCK (Homo sapiens, UniProt P06239)
[10] = biological target: NEK9 (Homo sapiens, UniProt Q8TD19)
[11] = biological target: MET (cMet) Y1235D (Homo sapiens, UniProt P08581, Y1235D)
[12] = biological target: EGFR (ErbB1) T790M L858R (Homo sapiens, UniProt P00533, L858R/T790M)
[13] = biological target: PRKCB2 (PKC beta II) (Homo sapiens, UniProt P05771)
[14] = biological target: MAPK9 (JNK2) (Homo sapiens, UniProt P45984)
[15] = biological target: ABL1 F317I (Homo sapiens, UniProt P00519, F317I)
[16] = biological target: MARK2 (Homo sapiens, UniProt Q7KZI7)
[17] = biological target: HIPK4 (Homo sapiens, UniProt Q8NE63)
[18] = biological target: EPHA5 (Homo sapiens, UniProt P54756)
[19] = biological target: MAPKAPK3 (Homo sapiens, UniProt Q16644)
[20] = biological target: CSNK1A1L (Homo sapiens, UniProt Q8N752)
[21] = biological target: EGFR (ErbB1) L858R (Homo sapiens, UniProt P00533, L858R)
[22] = biological target: PRKCN (PKD3) (Homo sapiens, UniProt O94806)
[23] = biological target: PRKCA (PKC alpha) (Homo sapiens, UniProt P17252)
[24] = biological target: CLK1 (Homo sapiens, UniProt P49759)
[25] = biological target: TXK (Homo sapiens, UniProt P42681)
[26] = biological target: JAK2 (Homo sapiens, UniProt O60674)
[27] = biological target: TYK2 (Homo sapiens, UniProt P29597)
[28] = biological target: FES (FPS) (Homo sapiens, UniProt P07332)

Chain of CSNK1A1L (Q8N752 whole entry): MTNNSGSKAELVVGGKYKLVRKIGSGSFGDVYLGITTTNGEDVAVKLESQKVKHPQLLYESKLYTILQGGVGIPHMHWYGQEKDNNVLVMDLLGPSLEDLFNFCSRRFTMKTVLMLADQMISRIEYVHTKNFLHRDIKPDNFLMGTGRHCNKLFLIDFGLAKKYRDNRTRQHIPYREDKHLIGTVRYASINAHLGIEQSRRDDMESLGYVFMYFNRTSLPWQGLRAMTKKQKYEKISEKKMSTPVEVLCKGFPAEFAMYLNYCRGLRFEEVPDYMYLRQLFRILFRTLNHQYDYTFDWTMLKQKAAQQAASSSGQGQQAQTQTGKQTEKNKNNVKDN
Chain of PAK3 (O75914 whole entry): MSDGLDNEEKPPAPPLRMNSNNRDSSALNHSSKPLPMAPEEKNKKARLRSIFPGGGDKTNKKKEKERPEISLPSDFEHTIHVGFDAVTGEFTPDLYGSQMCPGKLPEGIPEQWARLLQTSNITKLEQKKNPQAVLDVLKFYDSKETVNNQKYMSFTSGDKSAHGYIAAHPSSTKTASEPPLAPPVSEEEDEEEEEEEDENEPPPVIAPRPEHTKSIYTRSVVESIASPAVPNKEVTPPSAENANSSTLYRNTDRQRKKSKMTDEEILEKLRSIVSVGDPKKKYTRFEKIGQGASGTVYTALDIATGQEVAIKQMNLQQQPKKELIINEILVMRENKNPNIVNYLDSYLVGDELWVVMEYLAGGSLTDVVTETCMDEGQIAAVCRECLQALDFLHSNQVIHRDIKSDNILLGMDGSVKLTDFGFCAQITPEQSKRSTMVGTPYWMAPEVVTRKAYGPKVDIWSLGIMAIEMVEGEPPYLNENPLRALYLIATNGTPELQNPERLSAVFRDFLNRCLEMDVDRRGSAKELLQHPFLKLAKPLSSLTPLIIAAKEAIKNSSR
Chain of HIPK4 (Q8NE63 whole entry): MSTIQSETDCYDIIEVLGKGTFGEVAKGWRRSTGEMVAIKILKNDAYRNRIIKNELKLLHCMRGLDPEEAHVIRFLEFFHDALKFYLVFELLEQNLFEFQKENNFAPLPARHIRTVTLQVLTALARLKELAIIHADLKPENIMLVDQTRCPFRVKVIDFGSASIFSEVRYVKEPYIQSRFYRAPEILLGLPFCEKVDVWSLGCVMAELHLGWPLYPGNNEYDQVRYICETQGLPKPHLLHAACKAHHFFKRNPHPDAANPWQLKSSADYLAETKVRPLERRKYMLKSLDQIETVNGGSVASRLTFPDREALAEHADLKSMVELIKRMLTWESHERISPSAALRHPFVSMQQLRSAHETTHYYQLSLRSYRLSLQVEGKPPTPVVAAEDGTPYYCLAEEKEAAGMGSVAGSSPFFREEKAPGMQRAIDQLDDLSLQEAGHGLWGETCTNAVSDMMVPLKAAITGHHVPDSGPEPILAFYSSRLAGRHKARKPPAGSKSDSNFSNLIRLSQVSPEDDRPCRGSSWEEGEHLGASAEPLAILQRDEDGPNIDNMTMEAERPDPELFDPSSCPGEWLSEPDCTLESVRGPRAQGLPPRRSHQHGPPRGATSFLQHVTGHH
Chain of MET (cMet) Y1235D (P08581 whole entry Y1235D): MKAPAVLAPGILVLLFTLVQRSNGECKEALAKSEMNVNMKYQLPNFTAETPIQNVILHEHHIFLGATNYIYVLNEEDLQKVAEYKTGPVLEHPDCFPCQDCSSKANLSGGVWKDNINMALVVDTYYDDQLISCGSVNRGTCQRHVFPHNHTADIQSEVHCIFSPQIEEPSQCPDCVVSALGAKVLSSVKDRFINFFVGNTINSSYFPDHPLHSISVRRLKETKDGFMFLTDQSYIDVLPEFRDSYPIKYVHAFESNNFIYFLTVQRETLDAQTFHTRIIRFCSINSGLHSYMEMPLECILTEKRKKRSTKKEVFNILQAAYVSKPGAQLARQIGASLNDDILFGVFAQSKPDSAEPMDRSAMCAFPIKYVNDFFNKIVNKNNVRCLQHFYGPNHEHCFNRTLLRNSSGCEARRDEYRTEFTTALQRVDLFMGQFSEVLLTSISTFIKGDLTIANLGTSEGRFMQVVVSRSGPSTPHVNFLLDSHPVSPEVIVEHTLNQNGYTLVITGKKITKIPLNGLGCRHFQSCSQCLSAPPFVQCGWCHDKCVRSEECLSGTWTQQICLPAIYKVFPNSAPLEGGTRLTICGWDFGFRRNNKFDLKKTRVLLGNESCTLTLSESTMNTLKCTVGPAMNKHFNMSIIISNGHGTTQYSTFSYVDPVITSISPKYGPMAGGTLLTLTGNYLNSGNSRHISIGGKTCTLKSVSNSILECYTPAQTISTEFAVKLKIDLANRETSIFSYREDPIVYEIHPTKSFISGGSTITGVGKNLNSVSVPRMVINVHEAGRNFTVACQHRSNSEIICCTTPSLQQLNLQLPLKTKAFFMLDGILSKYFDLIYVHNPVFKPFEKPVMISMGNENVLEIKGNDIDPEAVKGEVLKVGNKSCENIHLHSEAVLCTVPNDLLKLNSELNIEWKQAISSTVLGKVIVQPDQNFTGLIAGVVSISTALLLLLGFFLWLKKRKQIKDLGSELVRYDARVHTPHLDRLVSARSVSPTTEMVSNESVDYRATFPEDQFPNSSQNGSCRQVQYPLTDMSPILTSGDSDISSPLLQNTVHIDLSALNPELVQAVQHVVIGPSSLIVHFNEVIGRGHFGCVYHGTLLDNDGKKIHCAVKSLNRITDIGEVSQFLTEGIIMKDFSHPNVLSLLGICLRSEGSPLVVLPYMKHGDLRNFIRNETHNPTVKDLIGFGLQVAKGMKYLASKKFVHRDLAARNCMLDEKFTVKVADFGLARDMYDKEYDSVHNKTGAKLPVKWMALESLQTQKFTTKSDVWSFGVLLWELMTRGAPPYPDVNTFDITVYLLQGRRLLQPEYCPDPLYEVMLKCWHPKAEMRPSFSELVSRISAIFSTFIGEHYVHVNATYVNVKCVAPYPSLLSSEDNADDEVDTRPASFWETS
Chain of EPHA4 (P54764 whole entry): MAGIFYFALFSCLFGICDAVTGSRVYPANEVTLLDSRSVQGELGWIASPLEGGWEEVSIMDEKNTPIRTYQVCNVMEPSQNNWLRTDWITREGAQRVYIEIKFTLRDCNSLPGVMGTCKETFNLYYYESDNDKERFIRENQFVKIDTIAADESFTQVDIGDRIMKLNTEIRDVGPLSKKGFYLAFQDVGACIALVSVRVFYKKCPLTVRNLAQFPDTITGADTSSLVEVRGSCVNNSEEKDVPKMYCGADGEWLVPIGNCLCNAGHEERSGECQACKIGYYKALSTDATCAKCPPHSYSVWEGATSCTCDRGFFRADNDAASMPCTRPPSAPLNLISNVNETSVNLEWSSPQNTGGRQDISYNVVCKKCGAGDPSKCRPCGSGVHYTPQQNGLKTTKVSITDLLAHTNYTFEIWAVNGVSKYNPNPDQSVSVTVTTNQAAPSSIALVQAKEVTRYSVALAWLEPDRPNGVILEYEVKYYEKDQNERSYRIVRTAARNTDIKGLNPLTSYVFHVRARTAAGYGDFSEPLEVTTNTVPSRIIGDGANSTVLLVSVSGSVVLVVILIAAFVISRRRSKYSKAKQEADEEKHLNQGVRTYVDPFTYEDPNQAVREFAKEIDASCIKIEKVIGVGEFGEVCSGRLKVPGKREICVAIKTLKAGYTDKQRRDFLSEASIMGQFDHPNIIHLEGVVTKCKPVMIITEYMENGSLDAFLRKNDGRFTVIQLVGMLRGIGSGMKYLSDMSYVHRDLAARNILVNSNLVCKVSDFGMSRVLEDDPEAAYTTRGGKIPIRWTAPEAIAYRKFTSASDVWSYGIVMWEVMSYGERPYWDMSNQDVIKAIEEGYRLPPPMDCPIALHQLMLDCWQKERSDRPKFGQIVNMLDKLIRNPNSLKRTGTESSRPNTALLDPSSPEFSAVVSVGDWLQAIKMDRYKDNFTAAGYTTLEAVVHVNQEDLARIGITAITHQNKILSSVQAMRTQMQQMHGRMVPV
Chain of JAK2 (O60674 whole entry): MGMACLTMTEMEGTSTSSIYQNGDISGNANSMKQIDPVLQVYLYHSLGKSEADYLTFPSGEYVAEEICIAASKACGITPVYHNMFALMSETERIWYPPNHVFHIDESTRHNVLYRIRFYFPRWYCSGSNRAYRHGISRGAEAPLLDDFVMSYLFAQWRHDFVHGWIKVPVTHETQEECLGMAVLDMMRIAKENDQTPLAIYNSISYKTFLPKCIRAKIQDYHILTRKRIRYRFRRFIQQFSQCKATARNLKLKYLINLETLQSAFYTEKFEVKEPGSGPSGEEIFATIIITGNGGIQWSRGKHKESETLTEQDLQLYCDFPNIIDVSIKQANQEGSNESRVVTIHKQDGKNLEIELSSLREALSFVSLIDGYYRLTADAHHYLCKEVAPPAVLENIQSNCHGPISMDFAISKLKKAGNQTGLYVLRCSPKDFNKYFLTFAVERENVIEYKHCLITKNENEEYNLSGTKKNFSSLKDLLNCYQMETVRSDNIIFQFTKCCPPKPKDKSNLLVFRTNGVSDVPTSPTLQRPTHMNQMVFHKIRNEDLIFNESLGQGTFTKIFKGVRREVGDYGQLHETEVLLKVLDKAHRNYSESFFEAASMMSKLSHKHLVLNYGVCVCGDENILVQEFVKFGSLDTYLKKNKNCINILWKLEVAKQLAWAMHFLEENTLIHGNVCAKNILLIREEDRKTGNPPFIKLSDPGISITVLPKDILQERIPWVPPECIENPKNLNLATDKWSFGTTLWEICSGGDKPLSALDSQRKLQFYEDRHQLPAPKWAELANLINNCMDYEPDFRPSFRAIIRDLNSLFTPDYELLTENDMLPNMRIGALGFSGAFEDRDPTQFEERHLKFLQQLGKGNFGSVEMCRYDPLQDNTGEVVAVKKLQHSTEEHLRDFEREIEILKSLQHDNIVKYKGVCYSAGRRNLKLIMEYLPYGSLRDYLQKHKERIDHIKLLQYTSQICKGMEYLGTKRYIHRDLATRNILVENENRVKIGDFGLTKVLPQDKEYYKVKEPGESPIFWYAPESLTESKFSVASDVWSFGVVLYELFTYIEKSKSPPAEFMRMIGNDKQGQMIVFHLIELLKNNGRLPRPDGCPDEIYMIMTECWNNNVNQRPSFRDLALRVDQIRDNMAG

In the case of `COc1ccc2nc3cc(Cl)ccc3c(Nc3cc(CN4CCCC4)c(O)c(CN4CCCC4)c3)c2n1` [Pyronaridine, 4-[(7-Chloro-2-methoxybenzo[b][1,5]naphthyridin-10-yl)amino]-2,6-bis(1-pyrrolidinylmethyl)phenol phosphate (1:4)], the inhibition at 1 µM [1] is reported as -7%, the inhibition at 1 µM [2] is reported as 2% and the inhibition at 1 µM [3] is reported as 7%. It also gave an inhibition at 1 µM [4] of -7%, an inhibition at 1 µM [5] of 7% and an inhibition at 1 µM [6] of 4%. The inhibition at 1 µM [7] was -4%, the inhibition at 1 µM [8] was -2% and the inhibition at 1 µM [9] was 12%. It also gave an inhibition at 1 µM [10] of 0%, an inhibition at 1 µM [11] of 4% and an inhibition at 1 µM [12] of 5%. It also gave an inhibition at 1 µM [13] of 15%, an inhibition at 1 µM [14] of -15% and an inhibition at 1 µM [15] of 0%. The inhibition at 1 µM [16] was 6%, the inhibition at 1 µM [17] was 5% and the inhibition at 1 µM [18] was -3%. It also gave an inhibition at 1 µM [19] of 17%, an inhibition at 1 µM [20] of 3% and an inhibition at 1 µM [21] of 5%. The inhibition at 1 µM [22] was 8%, the inhibition at 1 µM [23] was 13% and the inhibition at 1 µM [24] was -1%. It also gave an inhibition at 1 µM [25] of 4%, an inhibition at 1 µM [26] of 4% and an inhibition at 1 µM [27] of 0%. It also gave an inhibition at 1 µM [28] of -10%.

— publication doi:10.1101/2021.09.30.462449v1 (biorxiv, 2021)
